Values belong to the compound of their own block, whether it stands above or below them.
Columns and labels:
Assay type in all cases: biochemical
BRAF^WT = BRAF^WT (Homo sapiens, UniProt P15056); experiment: ELISA-based MEK phosphorylation assay
GSK3β = GSK3β (Homo sapiens, UniProt P49841); experiment: Kinase profiling, GSK3β; settings: inhibitor concentration of 100 μM
PAK1 = PAK1 (Homo sapiens, UniProt Q13153); experiment: Kinase profiling, PAK1; settings: inhibitor concentration of 100 μM
PAK4 = PAK4 (Homo sapiens, UniProt O96013); experiment: Kinase profiling, PAK4; settings: inhibitor concentration of 100 μM
Pim1 = Pim1 (Homo sapiens, UniProt P11309); experiment: Kinase profiling, Pim1; settings: inhibitor concentration of 100 μM
PI3Kγ = PI3Kγ (Homo sapiens, UniProt P48736); experiment: Kinase profiling, PI3Kγ lipid kinase; settings: BRAF versus PI3Kγ
MST1 = target: T1, MST1 (Homo sapiens, UniProt Q13043); experiment: Kinase profiling, MST1; settings: inhibitor concentration of 100 μM
T1 sequence (Q13043 1-487): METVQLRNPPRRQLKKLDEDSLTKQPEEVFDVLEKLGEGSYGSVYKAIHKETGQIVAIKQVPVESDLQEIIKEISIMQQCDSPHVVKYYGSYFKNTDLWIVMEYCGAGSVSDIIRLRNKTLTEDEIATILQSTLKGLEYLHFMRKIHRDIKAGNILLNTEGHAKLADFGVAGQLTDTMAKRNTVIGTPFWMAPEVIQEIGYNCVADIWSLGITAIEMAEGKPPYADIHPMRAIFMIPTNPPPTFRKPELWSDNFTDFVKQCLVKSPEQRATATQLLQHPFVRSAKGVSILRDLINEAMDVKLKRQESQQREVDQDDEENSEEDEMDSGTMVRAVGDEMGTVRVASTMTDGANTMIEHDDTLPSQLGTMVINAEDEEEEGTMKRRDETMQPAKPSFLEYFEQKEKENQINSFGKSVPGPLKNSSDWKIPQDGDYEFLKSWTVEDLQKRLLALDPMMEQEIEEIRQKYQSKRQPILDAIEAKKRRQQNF

BRAF^WT, sequence (P15056 433-726): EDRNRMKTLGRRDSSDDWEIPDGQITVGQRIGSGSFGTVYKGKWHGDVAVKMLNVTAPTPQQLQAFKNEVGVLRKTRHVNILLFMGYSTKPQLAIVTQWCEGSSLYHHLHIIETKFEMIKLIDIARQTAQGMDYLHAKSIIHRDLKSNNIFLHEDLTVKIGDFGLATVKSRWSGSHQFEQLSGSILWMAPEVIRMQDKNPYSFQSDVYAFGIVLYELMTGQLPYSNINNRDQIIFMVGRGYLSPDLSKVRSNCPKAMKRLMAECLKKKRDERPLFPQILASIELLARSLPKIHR
PI3Kγ, sequence (P48736 whole entry, species assumed): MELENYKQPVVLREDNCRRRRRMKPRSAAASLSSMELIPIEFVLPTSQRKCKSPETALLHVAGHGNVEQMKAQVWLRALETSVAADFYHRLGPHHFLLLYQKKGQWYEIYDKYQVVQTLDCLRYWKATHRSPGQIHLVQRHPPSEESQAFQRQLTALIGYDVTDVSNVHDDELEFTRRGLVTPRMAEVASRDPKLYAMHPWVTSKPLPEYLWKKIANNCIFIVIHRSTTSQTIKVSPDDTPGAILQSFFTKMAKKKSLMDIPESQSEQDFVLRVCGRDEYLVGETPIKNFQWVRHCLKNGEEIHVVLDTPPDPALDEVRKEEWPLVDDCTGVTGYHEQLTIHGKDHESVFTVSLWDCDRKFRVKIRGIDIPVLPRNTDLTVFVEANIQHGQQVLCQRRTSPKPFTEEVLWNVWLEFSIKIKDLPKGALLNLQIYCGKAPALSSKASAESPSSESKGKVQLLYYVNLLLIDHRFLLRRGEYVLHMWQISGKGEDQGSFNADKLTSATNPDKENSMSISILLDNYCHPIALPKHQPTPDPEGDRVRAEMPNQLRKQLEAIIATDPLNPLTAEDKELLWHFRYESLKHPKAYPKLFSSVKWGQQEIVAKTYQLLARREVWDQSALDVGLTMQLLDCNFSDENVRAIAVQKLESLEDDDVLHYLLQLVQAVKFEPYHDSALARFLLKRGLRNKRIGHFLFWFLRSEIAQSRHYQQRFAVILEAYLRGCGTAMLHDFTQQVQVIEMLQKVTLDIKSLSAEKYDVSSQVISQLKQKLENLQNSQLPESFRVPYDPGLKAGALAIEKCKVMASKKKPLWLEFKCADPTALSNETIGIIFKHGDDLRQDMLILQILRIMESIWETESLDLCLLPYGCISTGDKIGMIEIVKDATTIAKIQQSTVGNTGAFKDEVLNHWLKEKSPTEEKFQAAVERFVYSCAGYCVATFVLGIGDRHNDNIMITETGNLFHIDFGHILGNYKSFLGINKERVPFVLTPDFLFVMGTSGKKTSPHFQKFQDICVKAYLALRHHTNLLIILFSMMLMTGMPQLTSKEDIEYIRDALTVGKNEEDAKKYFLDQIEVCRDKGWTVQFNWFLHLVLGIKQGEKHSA
GSK3β, sequence (P49841 whole entry, species assumed): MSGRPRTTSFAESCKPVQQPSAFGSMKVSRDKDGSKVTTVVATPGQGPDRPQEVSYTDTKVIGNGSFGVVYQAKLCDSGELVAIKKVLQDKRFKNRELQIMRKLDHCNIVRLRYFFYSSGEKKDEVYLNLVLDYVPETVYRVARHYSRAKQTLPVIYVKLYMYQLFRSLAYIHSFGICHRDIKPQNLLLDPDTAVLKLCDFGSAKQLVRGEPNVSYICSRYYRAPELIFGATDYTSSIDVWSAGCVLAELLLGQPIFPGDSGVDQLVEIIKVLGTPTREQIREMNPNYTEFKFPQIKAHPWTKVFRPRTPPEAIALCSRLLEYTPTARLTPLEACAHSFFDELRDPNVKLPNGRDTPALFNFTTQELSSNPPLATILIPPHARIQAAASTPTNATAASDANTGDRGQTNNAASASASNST
PAK1, sequence (Q13153 whole entry): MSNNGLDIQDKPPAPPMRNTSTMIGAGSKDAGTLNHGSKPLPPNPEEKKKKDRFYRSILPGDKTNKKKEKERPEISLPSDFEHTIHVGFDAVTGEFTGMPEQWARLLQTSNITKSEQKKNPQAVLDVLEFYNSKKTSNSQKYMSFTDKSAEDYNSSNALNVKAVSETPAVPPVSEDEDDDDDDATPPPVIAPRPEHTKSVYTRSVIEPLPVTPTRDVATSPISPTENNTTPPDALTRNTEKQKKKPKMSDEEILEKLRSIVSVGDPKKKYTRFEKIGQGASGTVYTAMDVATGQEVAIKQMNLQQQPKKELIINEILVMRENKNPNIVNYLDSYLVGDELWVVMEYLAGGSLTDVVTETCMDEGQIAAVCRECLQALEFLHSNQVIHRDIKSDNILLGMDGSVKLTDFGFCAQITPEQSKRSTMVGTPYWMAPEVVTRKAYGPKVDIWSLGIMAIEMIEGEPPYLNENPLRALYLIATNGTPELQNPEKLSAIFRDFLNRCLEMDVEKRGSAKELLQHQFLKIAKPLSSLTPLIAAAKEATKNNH
Pim1, sequence (P11309 whole entry, species assumed): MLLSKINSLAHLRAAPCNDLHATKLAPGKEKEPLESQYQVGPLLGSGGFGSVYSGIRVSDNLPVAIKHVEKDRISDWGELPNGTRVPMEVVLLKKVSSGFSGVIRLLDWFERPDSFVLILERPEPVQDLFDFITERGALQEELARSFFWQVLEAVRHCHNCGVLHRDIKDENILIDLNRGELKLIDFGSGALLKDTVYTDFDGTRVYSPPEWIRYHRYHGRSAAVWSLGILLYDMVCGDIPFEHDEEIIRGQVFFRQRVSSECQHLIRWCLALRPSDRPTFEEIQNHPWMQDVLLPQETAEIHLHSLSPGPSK
PAK4, sequence (O96013 whole entry, species assumed): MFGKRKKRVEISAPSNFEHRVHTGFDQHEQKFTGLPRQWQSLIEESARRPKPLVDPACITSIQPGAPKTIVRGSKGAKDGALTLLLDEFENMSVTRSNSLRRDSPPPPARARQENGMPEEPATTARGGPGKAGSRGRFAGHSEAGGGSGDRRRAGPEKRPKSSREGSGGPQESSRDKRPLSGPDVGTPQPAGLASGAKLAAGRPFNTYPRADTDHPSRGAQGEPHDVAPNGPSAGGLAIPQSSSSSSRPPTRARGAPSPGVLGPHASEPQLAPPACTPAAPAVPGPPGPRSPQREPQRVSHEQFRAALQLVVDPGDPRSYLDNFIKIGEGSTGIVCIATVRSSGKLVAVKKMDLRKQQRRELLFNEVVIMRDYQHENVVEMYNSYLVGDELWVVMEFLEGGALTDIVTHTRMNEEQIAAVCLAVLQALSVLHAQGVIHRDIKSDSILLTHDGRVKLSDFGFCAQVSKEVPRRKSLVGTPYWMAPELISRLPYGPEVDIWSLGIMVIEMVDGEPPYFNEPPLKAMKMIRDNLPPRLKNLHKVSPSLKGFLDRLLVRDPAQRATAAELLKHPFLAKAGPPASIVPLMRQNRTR

remaining activity at 100 µM (BRAF^WT; read-out: BRAF kinase activity remaining (of wild-type activity)): ~80%
SMILES: CC1Nc2nc(NC(=O)c3ccc[n+](C)c3)[nH]c(=O)c2N(C(=O)c2ccc[n+](C)c2)C1C (stereo not shown) [compound 1]

inhibition against GSK3β (GSK3β): did not show significant inhibition
inhibition against PAK1 (PAK1): did not show significant inhibition
selectivity for BRAF over other representative protein kinases (BRAF^WT; versus GSK3β, Pim1, MST1, PAK1, PAK4): more than 50 fold
inhibition against PAK4 (PAK4): did not show significant inhibition
inhibition against Pim1 (Pim1): did not show significant inhibition
selectivity for BRAF over PI3K lipid kinases (PI3Kγ): > 12 fold
inhibition against MST1 (MST1): did not show significant inhibition
SMILES: Cn1c(=O)n(Cc2ccccc2)c(=O)c2c1nc(SCCO)n2Cc1ccccc1 [compound 24]

reduction in BRAF inhibitor potency relative to compound 19 (BRAF^WT): ≥ 20 fold
SMILES: Cn1c(=O)[nH]c(=O)c2c1nc(N/N=C\c1cccc([N+](=O)[O-])c1)n2Cc1ccccc1 [compound 31]

reduction in BRAF inhibitor potency relative to compound 19 (BRAF^WT): ≥ 20 fold
SMILES: Cn1c(=O)[nH]c(=O)c2c1nc(N/N=C\c1ccc([N+](=O)[O-])cc1)n2Cc1ccccc1 [compound 32]

Source: article PMC4010122 (Journal of medicinal chemistry, 2008)
